In ChEMBL document CHEMBL1201862, “PubChem BioAssay data set” (2004):
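Dose response: 5 concentrations. Exposure: 48 h. Format: 96-well plates. Endpoint: linear interpolation; highest concentration if not reached. Abbreviation: GI50, concentration required for 50% inhibition of growth.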 Active and inactive are the calls of the source. Rule as the data show it: active = GI50 up to about 1.1 µM and inactive = higher.

Columns and labels:
Experiment in all cases: NCI-60 cell line screen, 48 h
COLO 205 = system: COLO 205
HCT-116 = system: HCT-116
HCT-15 = system: HCT-15
HL-60 = system: HL-60
IGROV-1 = system: IGROV-1
K562 = system: K562
MDA-MB-231 = system: MDA-MB-231
NCI-H460 = system: NCI-H460
OVCAR-3 = system: OVCAR-3
OVCAR-4 = system: OVCAR-4
OVCAR-8 = system: OVCAR-8
SF-539 = system: SF-539
SK-MEL-28 = system: SK-MEL-28
SK-MEL-5 = system: SK-MEL-5
SK-OV-3 = system: SK-OV-3
SNB-19 = system: SNB-19
UACC-62 = system: UACC-62
EKVX = system: EKVX
MCF7 = system: MCF7
UO-31 = system: UO-31

Row | SMILES | GI50 (COLO 205) | GI50 (HCT-116) | GI50 (HCT-15) | GI50 (HL-60) | GI50 (IGROV-1) | GI50 (K562) | GI50 (MDA-MB-231) | GI50 (NCI-H460) | GI50 (OVCAR-3) | GI50 (OVCAR-4) | GI50 (OVCAR-8) | GI50 (SF-539) | GI50 (SK-MEL-28) | GI50 (SK-MEL-5) | GI50 (SK-OV-3) | GI50 (SNB-19) | GI50 (UACC-62) | GI50 (EKVX) | GI50 (MCF7) | GI50 (UO-31)
1 | O=C(N/N=C1/C(=O)c2c3ccccc3cc3cccc1c23)c1cccc(Cl)c1 | > 100 µM (inactive) | > 100 µM (inactive) | > 100 µM | > 100 µM (inactive) | 2.78 µM (inactive) | > 100 µM (inactive) | > 100 µM (inactive) | 79.4 µM (inactive) | > 100 µM (inactive) | > 100 µM (inactive) | > 100 µM (inactive) | 90.2 µM (inactive) | > 100 µM (inactive) | > 100 µM (inactive) | > 100 µM (inactive) | 41.4 µM (inactive) | 69.7 µM (inactive) | – | – | –
2 | CC(C)(C)SC1=CCC[C@@H](P(=O)(c2ccccc2)c2ccccc2)[C@@H]2CCC[C@@H]12 | 18 µM (inactive) | 14.3 µM (inactive) | 16.6 µM | 20 µM (inactive) | 17.2 µM (inactive) | 19.3 µM (inactive) | – | 15.7 µM (inactive) | 17 µM (inactive) | 14.3 µM (inactive) | 18.3 µM (inactive) | 18.8 µM (inactive) | 24.3 µM (inactive) | 17.7 µM (inactive) | 15.9 µM (inactive) | 16.1 µM (inactive) | 12.4 µM (inactive) | 18.6 µM (inactive) | 16.2 µM (inactive) | 16.5 µM (inactive)
3 | CC1(C)CSCC(C)(C)C(=N/N)/C1=N\N | > 100 µM (inactive) | > 100 µM (inactive) | > 100 µM | > 100 µM (inactive) | > 100 µM (inactive) | > 100 µM (inactive) | – | > 100 µM (inactive) | > 100 µM (inactive) | – | > 100 µM (inactive) | > 100 µM (inactive) | > 100 µM (inactive) | > 100 µM (inactive) | > 100 µM (inactive) | > 100 µM (inactive) | > 100 µM (inactive) | > 100 µM (inactive) | > 100 µM (inactive) | –
4 | O=C1c2cccnc2S(=O)(=O)N1c1ccc(Br)cc1 | > 100 µM (inactive) | > 100 µM (inactive) | > 100 µM | < 0.01 µM (active) | > 100 µM (inactive) | 41.6 µM (inactive) | > 100 µM (inactive) | – | > 100 µM (inactive) | > 100 µM (inactive) | > 100 µM (inactive) | – | > 100 µM (inactive) | > 100 µM (inactive) | > 100 µM (inactive) | 75.7 µM (inactive) | > 100 µM (inactive) | > 100 µM (inactive) | – | > 100 µM (inactive)
